Key:
Format in all cases: in vivo
ferrets [1] = test: Cisplatin-induced emesis in ferrets, test compound i.v.; conditions: ferret
Method: Both the test compound and cisplatin were prepared and administered in normal saline. The dose of test compound was calculated as the free base.
Emesis was induced in groups of 6 male ferrets weighing between 1.5-2 kg, by intravenous administration of cisplatin at a dose of 10 mg/kg. The onset of emesis occurred between 38 and 75 minutes after injection and over a period of 2 hours the number of vomits/retches (episodes) was in the range 30-62 (average 42±5 vomits/retches per 2 h). Behavioural changes characteristic of emesis were also noted.
The test compound was administered to groups of 6 male ferrets (1.5-2 kg) by intravenous administration at doses of 0.01, 0.1 and 1 mg/kg, immediately prior to administration of cisplatin as described above.

ferrets [2] = test: Cisplatin-induced emesis in ferrets, test compound i.p.; conditions: ferret, cisplatin 9 mg/kg i.p. + test compound 1 mg/kg i.p. 30 minutes before and 1 hour after cisplatin
Method: Thus cisplatin was administered intraperitoneally to a group of 4 male ferrets at a dose of 9 mg/kg, and the time to onset of emesis and the number of emetic episodes were recorded. In a second group of four male ferrets the test compound was administered at a dose of 1 mg/kg i.p. 30 minutes before and 1 hour after intraperitoneal administration of cisplatin.

guinea-pigs = test: Gastric emptying in guinea-pigs (passage of barium sulphate spheres, X-ray location); conditions: guinea pig
Method: Test compound: 1,2,3,9-tetrahydro-9-methyl-3-[(2-methyl-1H-imidazol-1-yl)methyl]-4H-carbazol-4-one hydrochloride dihydrate. The effect of the test compound on gastric emptying was determined in guinea-pigs by following the progress of polystyrene-coated barium sulphate spheres (1 mm diameter) through the gut. The experimental method was based on that described by B. Costall et. al., Eur. J. Pharmacol 91, 197-205, 1983 and B. Cox et. al., Br. J. Pharmacol. 70, 104, 1980.
The spheres (approximatley 30 in number) were administered orally in 0.2 ml carboxymethylcellulose with 0.05 ml glycerine. At the same time, the test compound was administered intraperitoneally at doses of 0.001, 0.01 and 0.1 mg/kg. The control animals received saline, administered intraperitoneally, in place of the test compound. Passage of the spheres through the gut was monitored at 30-60 minute intervals over a period of 2 hours by X-ray location. The number of spheres leaving the stomach was recorded and expressed as a percentage of the total.

[3] = cisplatin 10 mg/kg i.v. + test compound 0.01 mg/kg i.v.

Cc1nccn1CC1CCc2c(c3ccccc3n2C)C1=O.Cl.O.O (stereo not drawn) [test compound, 1,2,3,9-tetrahydro-9-methyl-3-[(2-methyl-1H-imidazol-1-yl)methyl]-4H-carbazol-4-one hydrochloride dihydrate]
Duration of emesis (ferrets [1]; [3]): 1 h
Intensity of emesis (ferrets [1]; [3]): 17 ± 2.9 episodes 2 h
Onset of emesis (ferrets [1]; [3]): 89 to 109 min
Emesis and behavioural changes (ferrets [1]; cisplatin 10 mg/kg i.v. + test compound 0.1 mg/kg i.v.): Emesis and behavioural changes were completely
Emesis and behavioural changes (ferrets [1]; cisplatin 10 mg/kg i.v. + test compound 1 mg/kg i.v.): Emesis and behavioural changes were completely
Emetic response (onset of emesis, emetic episodes, retches) (ferrets [2]): emetic response completely
Mean % Increase in gastric emptying (± s.e.) (guinea-pigs; 0.001 mg/kg i.p., 1 hour): 21 ± 8.7%
Mean % Increase in gastric emptying (± s.e.) (guinea-pigs; 0.001 mg/kg i.p., 2 hours): 57 ± 10.5%
Mean % Increase in gastric emptying (± s.e.) (guinea-pigs; 0.01 mg/kg i.p., 1 hour): 33 ± 3.6%
Mean % Increase in gastric emptying (± s.e.) (guinea-pigs; 0.01 mg/kg i.p., 2 hours): 76.5 ± 11.2%
Mean % Increase in gastric emptying (± s.e.) (guinea-pigs; 0.1 mg/kg i.p., 1 hour): 47 ± 7.6%
Mean % Increase in gastric emptying (± s.e.) (guinea-pigs; 0.1 mg/kg i.p., 2 hours): 68 ± 5.0%
